Laboratory results taken from patent US9453014B2, “Cyclic amide derivatives as inhibitors of 11-β-hydroxysteroid dehydrogenase and uses thereof” (CONNEXIOS LIFE SCIENCES PVT. LTD., priority 2011, dated 2016).

Legend:
[1] = target: T1, human full length HSD11 β 1 (Homo sapiens, UniProt P28845); assay: In Vitro HSD11β1 Inhibition Assay; assay type: cell-based; conditions: CHO cells transiently expressing human HSD11β1; 200 nM cortisone+500 uM NADPH overnight; cortisone to cortisol by LC/MS-MS; read-out: 11βHSD1 (IC50)
T1 construct: transient expression of human full length HSD11 β 1 expression vector; host or cells: CHO cells (transient transfection)
T1 sequence (P28845 whole entry): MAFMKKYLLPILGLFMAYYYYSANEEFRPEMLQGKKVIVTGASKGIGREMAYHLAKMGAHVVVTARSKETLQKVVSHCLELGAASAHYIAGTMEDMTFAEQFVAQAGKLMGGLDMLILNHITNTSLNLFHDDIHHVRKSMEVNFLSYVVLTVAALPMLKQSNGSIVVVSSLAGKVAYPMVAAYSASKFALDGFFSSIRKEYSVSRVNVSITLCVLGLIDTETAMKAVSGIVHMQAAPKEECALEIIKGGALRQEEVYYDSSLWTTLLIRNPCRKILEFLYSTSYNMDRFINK
Method in brief: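 CHO cells transiently transfected with human full-length HSD11β1 were re-seeded after 24 h and, 24 h later, incubated overnight with 200 nM cortisone plus 500 uM NADPH and inhibitor. Cortisone-to-cortisol conversion was measured by LC/MS-MS. IC50 from an 8-point log concentration–inhibition curve.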

[2] = phase IIa trial, type 2 diabetes, 28-days; cited from earlier work

| IC50 [1] [nM] | SMILES | safety and tolerability [2] |
| --- | --- | --- |
| > 250 | CC(CC(=O)N1CCC(C(=O)O)C2CCCCC21)c1c[nH]c2nccc(Cl)c12 (stereo not drawn) [Example 171, 1-[3-(4-chloro-1H-pyrrolo[2,3-b]pyridin-3-yl)butanoyl]decahydroquinoline-4-carboxylic acid] | – |
| > 250 | Cc1cccc2c1nnn2C(CC(=O)N1CCCC2CCCCC21)C(C)C (stereo not drawn) [Example 172, 4-methyl-3-(4-methyl-1H-benzotriazol-1-yl)-1-(octahydroquinolin-1(2H)-yl)pentan-1-one] | – |
| > 250 | CC(C)C(CC(=O)N1CCC(C(=O)O)C2CCCCC21)c1c[nH]c2cccc(F)c12 (stereo not drawn) [Example 179, 1-[3-(4-fluoro-1H-Indol-3-yl)-4-methylpentanoyl]decahydroquinoline-4-carboxylic acid] | – |
| > 250 | Cc1ccnc2[nH]cc(C(CC(=O)N3CCC(C(=O)O)C4CCCCC43)C(C)C)c12 (stereo not drawn) [Example 180, 1-[4-methyl-3-(4-methyl-1H-pyrrolo[2,3-b]pyridin-3-yl)pentanoyl]decahydroquinoline-4-carboxylic acid] | – |
| > 250 | Cc1cccc2c1nnn2C(CC(=O)N1CCC(C(=O)O)C2CCCCC21)C(C)C (stereo not drawn) [Example 183, 1-[4-methyl-3-(4-methyl-1H-benzotriazol-1-yl)pentanoyl]decahydroquinoline-4-carboxylic acid] | – |
| 150 to 200 | CC(C)C(CC(=O)N1CCC(C(=O)O)C2CCCCC21)c1c[nH]c2cc(Cl)ccc12 (stereo not drawn) [Example 185, 1-[3-(6-chloro-1H-indol-3-yl)-4-methylpentanoyl]decahydroquinoline-4-carboxylic acid] | – |
| > 250 | CCC(CC(=O)N1CCC(C(=O)O)C2CCCCC21)c1c[nH]c2cccc(Cl)c12 (stereo not drawn) [Example 187, 1-[3-(4-chloro-1H-indol-3-yl)pentanoyl]decahydroquinoline-4-carboxylic acid] | – |

More lines, now with the values behind:

| SMILES | IC50 [1] [nM] | safety and tolerability [2] |
| --- | --- | --- |
| CC(CC(=O)N1CCCC2CCCCC21)c1nc2c(Cl)cccc2s1 (stereo not drawn) [Example 173, 3-(4-chloro-1,3-benzothiazol-2-yl)-1-(octahydroquinolin-1(2H)-yl)butan-1-one] | < 100 | – |
| O=C(O)C1CCC2CCCCC2N1C(=O)CC(c1ccccc1)c1c[nH]c2cc(F)ccc12 (stereo not drawn) [Example 174, 1-[3-(6-fluoro-1H-indol-3-yl)-3-phenylpropanoyl]decahydroquinoline-2-carboxylic acid] | > 250 | – |
| O=C(O)C1CC2CCCCC2N(C(=O)CC(c2ccccc2)c2c[nH]c3cc(F)ccc23)C1 (stereo not drawn) [Example 175, 1-[3-(6-fluoro-1H-indol-3-yl)-3-phenylpropanoyl]decahydroquinoline-3-carboxylic acid] | > 250 | – |
| O=C(O)C1CC2CCCCC2N(C(=O)CC(c2ccccc2)c2c[nH]c3cccc(F)c23)C1 (stereo not drawn) [Example 176, 1-[3-(4-fluoro-1H-indol-3-yl)-3-phenylpropanoyl]decahydroquinoline-3-carboxylic acid] | 150 to 200 | – |
| O=C(O)C1CCN(C(=O)CC(c2cccs2)c2c[nH]c3cccc(Cl)c23)C2CCCCC12 (stereo not drawn) [Example 184, 1-[3-(4-chloro-1H-indol-3-yl)-3-(thiophen-2-yl)propanoyl]decahydroquinoline-4-carboxylic acid] | > 250 | – |
| O=C(O)C1CCC2C(CCCN2C(=O)CC(c2ccccc2)c2c[nH]c3cccc(F)c23)C1 (stereo not drawn) [Example 186, 1-[3-(4-fluoro-1H-indol-3-yl)-3-phenylpropanoyl]decahydroquinoline-6-carboxylic acid] | < 100 | – |
| O=C(O)C1CCCC2C1CCCN2C(=O)CC(c1ccccc1)c1c[nH]c2cccc(F)c12 (stereo not drawn) [Example 188, 1-[3-(4-fluoro-1H-indol-3-yl)-3-phenylpropanoyl]decahydroquinoline-5-carboxylic acid] | < 100 | – |
| CNC(=O)c1ccc(-c2ccc(C3(C(=O)N4CC[C@@]5(C4)OC(=O)c4ccccc45)CC3)cc2)cn1 [INCB13739] | – | safe and well tolerated without any serious side effects and hypoglycemia |
